Measurements from patent US8541607B2, “Disulfide, sulfide, sulfoxide, and sulfone derivatives of cyclic sugars and uses thereof” (Lacer, S.A., priority 2003, dated 2013).

Legend:
[1] = system: heparinized plasma (plasma lipoproteins); test: Inhibition of plasma oxidation induced by Cu2+ (absorbance 234 nm); format: biochemical; settings: compounds at 10 μM; 50 μM CuSO4; mean ± s.e.m.
Procedure: The method used in the assays to determine the effect of compounds on the capacity of oxidation of the plasma is substantially the same as described in Spranger T. et al., Chem Phys Lipids 1998; 91: 39-52.
Lipoprotein oxidation induced in vitro in plasma is expected to represent a relevant model of the lipoprotein oxidation in the arterial wall. Oxidation of plasma lipoproteins was assessed as the capacity of oxidation of heparinized plasma and was measured by spectrophotometry as in increase in absorbance at 234 nm. The compounds were added in vitro to determine their inhibitory activity over the capacity of oxidation of plasma induced by Cu^2+ (CuSO4). Heparinized plasma was diluted with phosphate-buffered saline solution (PBS) containing 0.16 M NaCl, and the oxidation was started by 50 μM CuSO4. Experimental samples were incubated at 37° C. and the increase in absorbance at 234 nm was automatically recorded every 15 min for at least 12 h. The effect of compounds over the capacity of oxidation of plasma induced by Cu^2+ was tested at 7 different concentrations using heparinizaded plasma from 7 different healthy donors.

[2] = system: HUVEC cells; test: In vitro protection against cytotoxicity induced by oxygen radicals (peroxynitrite), XTT method; format: cell-based, human; settings: HUVEC pre-treated with 50 μM compound for one hour, then 800 μM peroxynitrite overnight
Source text: The method used is substantially the same as described by Caveda L., et al. (J. Clin. Invest. […]; 98: 886-893).
For the determination of the capacity to inhibit the cytotoxicity induced by oxygen radicals Human Umbilical Vein Endothelial Cells (HUVEC) were used. HUVEC were isolated and cultured in M199 and 20% FCS (Fetal Calf Serum).
Test XTT assay is based on […] by the metabolically active cells of the salt of tetrazolio XTT to form an orange product, the formazan dye formed is soluble and is directly quantified using an spectrophotometer.
HUVEC cells were cultivated until a sub-confluence status in a 96 well tissue culture plate and pre-treated with 50 μM of the compound for one hour. After that, cells were treated with 800 μM of peroxynitrite for an overnight.
After overnight incubation cells were incubated with the yellow XTT solution (final concentration 0.3 mg/ml) for 4 hours. After this incubation period, orange formazan solution was formed, which was spectrophotometrically quantified using an ELISA plate reader at 450 nm
The results are shown in table 15 and are expressed as percentage of death cells.

[3] = system: platelets (Human Platelet Rich Plasma); test: In vitro inhibition of ADP-induced platelet aggregation; format: cell-based; settings: submaximal ADP (1-4 μM), mean ± s.d.
Procedure: The method used in the assays is substantially the same as described in following reference: • * Sales, E., at al., Br. J. Pharmacol. 112 (1994); 1071-1076.
The compounds are tested at four different concentrations, using platelet rich plasma from not less than 6 different healthy human donors. The results obtained are compared to those from 5-isosorbide mononitrate, which is used as reference product.
The results are shown in table 2 and are expressed as IC50 (inhibitory concentration 50), which is the concentration of each of the tested compounds yielding an inhibition equal to 50% of the aggregation obtained with a submaximal concentration (1-4 μM) of ADP (a submaximal concentration of ADP is the minimal amount of ADP which produces the maximal aggregation).

[4] = system: U937 monocyte adhesion to activated HMEC-1 human endothelial cells; test: Inhibition of U937 monocyte adhesion to TNF-α activated HMEC-1; format: cell-based; settings: HMEC-1 activated by TNF-α (50 ng/ml); mean ± s.e.m.
Source text: The methods used in the assays to determine the effect of the compounds on platelet and monocyte adhesion to human endothelial cells are substantially the same as described in the following references: • Del Maschio A. et al., J Cell Biol 1996; 135: 497-510 • Bombeli T. et al., Blood 1999; 93: 3831-3838 • Colomé C. et al; Atherosclerosis 2000; 149: 295-302; and • Martin-Satue M. at al; British Journal of Cancer 1999; 80; 1169-1174
The adhesion of the U937-monocyte cells to confluent human microvasculature endothelial cells (HMEC-1) activated by means of TNF-α (50 ng/ml) and the platelets to human umbilical endothelial cells (HUVEC) were the methods used to determine the inhibitory effect of compounds on cellular adhesion. The adhesion of monocytes previously labeled with calcein-2M (Molecular Probes) to HMEC-1 activated by TNF-α, was assessed by determination of the associated-cell fluorescence. The adhesion of washed human platelets previously labeled with MoAb against CD36-FITC to activated-HUVEC (50 μg/ml of LDL minimally modified, LDLmm) was determined by Laser Scanning Cytometry (LSC, Olympus) determining the associated-cell fluorescence. Results are expressed as the percentage of inhibition respect to control (adhesion of the cells in the absence of compounds).

[5] = system: arterial rings; test: Test of vasorelaxation on arterial rings contracted with phenylephrine; format: cell-based; settings: artery ring contracted with 1 μM Phenylephrine; mean ± s.d.; read-out: EC50 (vasodilatation equal to 50% of the maximum tone)
Procedure: The method used in the assays is substantially the same as described in following references: • * Furchgot, R. F., “Methods in nitric oxide research”; Feelisch & Stamler, eds., John Wiley & Sons, Chichester, England, pp 567-581. • * Trongvanbichnam K., et al., Jpn. J. Pharmacol. 71 (1996); 167-173. • * Sales, E., at al., Eur. J. Pharmacol. 258 (1994); 47-55.
The different compounds are tested at 5 different concentrations, at a concentration range from 0.0001 to 10 mM, using from 6 to 9 arterial rings for each compound. The obtained results are compared to those from the isosorbide 5-mononitrate, which is used as reference product.
The results are shown in table 1 below and are provided as EC50 (effective concentration 50), which is the concentration of each of the tested, compounds yielding a vasodilatation equal to 50% of the maximum tone at which the artery ring has been contracted with 1 μM of Phenylephrine.

With CC(=O)S[C@H]1CO[C@H]2[C@@H]1OC[C@H]2O[N+](=O)[O-] [(12), 2-acetylthio-isosorbide-5-mononitrate] the “% of increment of lag phase with respect to control (plasma oxidation)” value [1] was 200 ± 10%, the “% of death cells” value [2] was 50% and the IC50 [3] was 89 ± 10 µM. For the same molecule, the “% of inhibition to control, U937 monocyte adhesion” value [4] was 15 ± 2% and the EC50 [5] was 23 ± 10 µM.
For O=[N+]([O-])O[C@@H]1CO[C@H]2[C@@H]1OC[C@@H]2S [(1), 2-thioisosorbide 5-mononitrate], the “% of increment of lag phase with respect to control (plasma oxidation)” value [1] was 245 ± 26%, the “% of death cells” value [2] was 80% and the IC50 [3] was 110 ± 10 µM. For the same molecule, the “% of inhibition to control, U937 monocyte adhesion” value [4] was 30 ± 8% and the EC50 [5] was 41 ± 6 µM.
